In ChEMBL document CHEMBL5375979, “Chemical, Biochemical, Cellular, and Physiological Characterization of Leucettinib-21, a Down Syndrome and Alzheimer's Disease Drug Candidate” (J Med Chem, 2023):

Columns and labels:
[1] = target: Dual specificity protein kinase CLK4 (Homo sapiens, UniProt Q9HAZ1)
[2] = target: Dual specificity tyrosine-phosphorylation-regulated kinase 1B (Homo sapiens, UniProt Q9Y463)
[3] = target: Dual specificity protein kinase CLK1 (Homo sapiens, UniProt P49759)
[4] = target: Dual specificity tyrosine-phosphorylation-regulated kinase 1A (Homo sapiens, UniProt Q13627)

Sequence of Dual specificity protein kinase CLK1 (P49759 whole entry): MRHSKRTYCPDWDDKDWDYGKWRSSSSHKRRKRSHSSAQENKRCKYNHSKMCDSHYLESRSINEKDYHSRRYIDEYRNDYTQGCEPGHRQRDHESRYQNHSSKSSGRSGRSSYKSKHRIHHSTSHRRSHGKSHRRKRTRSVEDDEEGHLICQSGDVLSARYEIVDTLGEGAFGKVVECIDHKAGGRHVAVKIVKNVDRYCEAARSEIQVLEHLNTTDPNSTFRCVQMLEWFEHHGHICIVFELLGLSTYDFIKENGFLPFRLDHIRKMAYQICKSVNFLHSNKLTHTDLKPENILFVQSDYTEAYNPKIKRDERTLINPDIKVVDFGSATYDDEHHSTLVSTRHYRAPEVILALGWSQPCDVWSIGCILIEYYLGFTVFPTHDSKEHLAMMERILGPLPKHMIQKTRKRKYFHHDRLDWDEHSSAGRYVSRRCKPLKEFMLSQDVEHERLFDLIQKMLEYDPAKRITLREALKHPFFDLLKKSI
Sequence of Dual specificity tyrosine-phosphorylation-regulated kinase 1B (Q9Y463 whole entry): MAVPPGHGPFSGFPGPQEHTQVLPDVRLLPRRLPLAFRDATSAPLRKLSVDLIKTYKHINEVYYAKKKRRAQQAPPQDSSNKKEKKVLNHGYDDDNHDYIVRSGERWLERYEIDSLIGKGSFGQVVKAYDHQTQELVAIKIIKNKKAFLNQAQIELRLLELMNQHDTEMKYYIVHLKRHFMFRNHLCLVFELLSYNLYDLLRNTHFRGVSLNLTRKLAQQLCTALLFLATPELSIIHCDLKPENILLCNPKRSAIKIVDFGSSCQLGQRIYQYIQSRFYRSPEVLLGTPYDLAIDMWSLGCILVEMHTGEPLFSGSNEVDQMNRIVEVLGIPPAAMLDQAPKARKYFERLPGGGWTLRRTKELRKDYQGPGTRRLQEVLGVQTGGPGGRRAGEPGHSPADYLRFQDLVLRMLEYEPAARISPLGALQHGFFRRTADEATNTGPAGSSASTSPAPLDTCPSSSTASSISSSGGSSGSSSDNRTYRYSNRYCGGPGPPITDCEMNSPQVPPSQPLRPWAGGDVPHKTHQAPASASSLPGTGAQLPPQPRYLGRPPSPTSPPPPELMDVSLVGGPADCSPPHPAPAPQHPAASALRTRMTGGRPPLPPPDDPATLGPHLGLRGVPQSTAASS
Sequence of Dual specificity protein kinase CLK4 (Q9HAZ1 whole entry): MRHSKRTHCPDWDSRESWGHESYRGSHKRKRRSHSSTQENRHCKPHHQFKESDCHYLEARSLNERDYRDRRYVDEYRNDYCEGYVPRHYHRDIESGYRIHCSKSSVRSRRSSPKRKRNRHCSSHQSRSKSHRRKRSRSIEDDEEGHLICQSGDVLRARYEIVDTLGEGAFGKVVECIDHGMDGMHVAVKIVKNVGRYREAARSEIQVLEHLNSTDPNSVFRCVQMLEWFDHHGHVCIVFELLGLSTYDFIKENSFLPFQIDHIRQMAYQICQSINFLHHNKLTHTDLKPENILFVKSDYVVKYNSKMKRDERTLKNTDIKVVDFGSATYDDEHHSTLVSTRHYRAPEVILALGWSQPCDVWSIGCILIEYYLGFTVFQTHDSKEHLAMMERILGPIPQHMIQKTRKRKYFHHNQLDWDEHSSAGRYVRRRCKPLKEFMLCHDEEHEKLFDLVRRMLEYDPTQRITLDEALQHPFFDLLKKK

In the case of `COC[C@@H](CC(C)C)NC1=N/C(=C\c2ccc3c(cnn3C)c2)C(=O)N1`, the IC50 [1] is reported as 0.189 µM and the IC50 [2] is reported as 0.358 µM.

`COC[C@@H](CC(C)C)NC1=N/C(=C\c2ccc3c(cnn3C)c2)C(=O)N1C` was tested, and the IC50 [3] was 0.408 µM and the IC50 [4] was 0.399 µM.

For `COC[C@@H](CC(C)C)NC1=N/C(=C\c2ccc3nnsc3c2)C(=O)N1C`, the IC50 [3] was 0.734 µM, the IC50 [1] was 0.861 µM and the IC50 [4] was 0.95 µM. The IC50 [2] was 0.751 µM.

Compound `COC[C@@H](CC(C)C)NC1=N/C(=C\c2ccc3nn(C)cc3c2)C(=O)N1C` has an IC50 [3] of 0.258 µM and an IC50 [1] of 0.153 µM.

For `COC[C@@H](CC(C)C)NC1=N/C(=C\c2ccc3[nH]ccc3c2)C(=O)N1`, the IC50 [1] was > 10 µM, the IC50 [4] was 4.79 µM and the IC50 [2] was > 10 µM.

With `COC[C@@H](CC(C)C)NC1=N/C(=C\c2ccc3c(c2)OCO3)C(=O)N1` the IC50 [3] was 0.001 µM, the IC50 [1] was 0.0135 µM and the IC50 [4] was 0.005 µM. It also gave an IC50 [2] of 0.023 µM.

Compound `COC[C@@H](CC(C)C)NC1=N/C(=C\c2ccc3[nH]ncc3c2)C(=O)N1C` has an IC50 [1] of 0.166 µM, an IC50 [4] of 0.196 µM and an IC50 [2] of 0.134 µM.

`COC[C@@H](CC(C)C)NC1=N/C(=C\c2ccc3[nH]ncc3c2)C(=O)N1` gave an IC50 [3] of 0.31 µM, an IC50 [1] of 0.245 µM and an IC50 [2] of 0.115 µM.

For `COC[C@@H](CC(C)C)NC1=N/C(=C\c2ccc3nn(C)cc3c2)C(=O)N1`, the IC50 [3] was 0.191 µM and the IC50 [2] was 0.0783 µM.

Compound `COC[C@@H](CC(C)C)NC1=N/C(=C\c2ccc3nc(C)sc3c2)C(=O)N1` has an IC50 [1] of 0.0527 µM.

`COC[C@@H](CC(C)C)NC1=N/C(=C\c2ccc3c(ccn3C)c2)C(=O)N1` was tested, and the IC50 [3] was > 10 µM, the IC50 [1] was > 10 µM and the IC50 [2] was 8.17 µM.

Compound `COC[C@@H](CC(C)C)NC1=N/C(=C\c2ccc3c(c2)CCO3)C(=O)N1C` has an IC50 [1] of 0.578 µM, an IC50 [4] of 0.488 µM and an IC50 [2] of 0.17 µM.

In the case of `COC[C@@H](CC(C)C)NC1=N/C(=C\c2ccc3c(c2)ncn3C)C(=O)N1C`, the IC50 [3] is reported as > 10 µM, the IC50 [1] is reported as > 10 µM and the IC50 [4] is reported as > 10 µM. The IC50 [2] was > 10 µM.

In the case of `COC[C@@H](CC(C)C)NC1=N/C(=C\c2ccc3ncoc3c2)C(=O)N1`, the IC50 [3] is reported as 0.0142 µM.

`COC[C@@H](CC(C)C)NC1=N/C(=C\c2ccc3c(ccn3C)c2)C(=O)N1C` was tested, and the IC50 [3] was > 10 µM, the IC50 [1] was > 10 µM and the IC50 [4] was > 10 µM. For the same compound, the IC50 [2] was > 10 µM.

`COC[C@@H](CC(C)C)NC1=N/C(=C\c2ccc3c(c2)CCO3)C(=O)N1` gave an IC50 [3] of 0.0567 µM, an IC50 [1] of 0.014 µM and an IC50 [4] of 0.0116 µM. The IC50 [2] was 0.0716 µM.

For `COC[C@@H](CC(C)C)NC1=N/C(=C\c2ccc3nc(C)sc3c2)C(=O)N1C`, the IC50 [3] was 0.496 µM, the IC50 [1] was 0.673 µM and the IC50 [4] was 0.511 µM.

Work on `COC[C@@H](CC(C)C)NC1=N/C(=C\c2ccc3ncn(C)c3c2)C(=O)N1` yielded an IC50 [3] of 0.0382 µM, an IC50 [1] of 0.0117 µM and an IC50 [4] of 0.0787 µM.

`COC[C@@H](CC(C)C)NC1=N/C(=C\c2ccc3scnc3c2)C(=O)N1C` was tested, and the IC50 [3] was > 10 µM, the IC50 [1] was > 10 µM and the IC50 [4] was > 10 µM. The IC50 [2] was > 10 µM.

For `COC[C@@H](CC(C)C)NC1=N/C(=C\c2ccc3[nH]cnc3c2)C(=O)N1`, the IC50 [3] was 0.104 µM, the IC50 [1] was 0.0412 µM and the IC50 [4] was 0.0766 µM. It also gave an IC50 [2] of 1.08 µM.

With `COC[C@@H](CC(C)C)NC1=N/C(=C\c2ccc3c(c2)ncn3C)C(=O)N1` the IC50 [3] was > 10 µM, the IC50 [1] was > 10 µM and the IC50 [4] was > 10 µM. The IC50 [2] was > 10 µM.

For `COC[C@@H](CC(C)C)NC1=N/C(=C\c2ccc3ncn(C)c3c2)C(=O)N1C`, the IC50 [3] was 0.0376 µM.

With `COC[C@@H](CC(C)C)NC1=N/C(=C\c2ccc3nnsc3c2)C(=O)N1` the IC50 [1] was 0.268 µM.

With `COC[C@@H](CC(C)C)NC1=N/C(=C/c2ccc3ncoc3c2)C(=O)N1C` the IC50 [3] was 0.0188 µM and the IC50 [1] was 0.0163 µM.

Compound `COC[C@@H](CC(C)C)NC1=N/C(=C\c2ccc3c(c2)OCO3)C(=O)N1C` has an IC50 [3] of 0.131 µM, an IC50 [1] of 0.0771 µM and an IC50 [4] of 0.0535 µM. The IC50 [2] was 0.0411 µM.

With `COC[C@@H](CC(C)C)NC1=N/C(=C\c2ccc3[nH]ccc3c2)C(=O)N1C` the IC50 [1] was > 10 µM and the IC50 [4] was 3.93 µM.

`COC[C@@H](CC(C)C)NC1=N/C(=C\c2ccc3[nH]cnc3c2)C(=O)N1C` showed an IC50 [1] of 0.0021 µM and an IC50 [4] of 0.112 µM.
